Patent US9981964B2 (Agency for Science, Technology and Research, priority 2013, dated 2018)

Tested on: HEK293-STF3A cells
Test: STF3A assay (STF luciferase reporter in Wnt3A-expressing HEK293 cells)
Type: cell-based
Settings: Homo sapiens, 24 h, 1 day of treatment
Description: HEK293-STF cell line was modified from Human embryonic kidney cell line HEK293 transfected with the STF reporter. HEK293-STF3A cell line was further modified from HEK293-STF cell line to express Wnt3A. This cell line was used to identify compounds that regulate either early or late signaling components of the Wnt pathway. These two cell lines were obtained from David Virshup's laboratory, Duke-NUS. L-Wnt3A (ATCC, #CRL-2647) cell line was used for providing Wnt3A conditioned media. The three cell lines were grown in DMEM with 10% FBS incubated in 37° C. with 5% CO2.
2×10^4 HEK293-STF3A cells in 75 μl culture media were seeded in each well of white 96 well plates (Greiner #655098) and incubated overnight at 37° C. 25 μl serially diluted compound was added to the cells to give final concentration of 50 μM to 1.5 nM. After 1 day of treatment, 100 μl of Steady-Glo Luciferase Assay reagent (#E2520, Promega) was added to each well and incubated for 10 minutes at room temperature. Luminescence was measured using Tecan Safire2 plate reader.

Row | SMILES | IC50 [nM]
1 | O=C(CN1CCCC2=C1C(=O)N(C1CC1)C2=O)Nc1ccc(-c2cncc(F)c2)nc1 [Compound 87, 2-(6-cyclopropyl-5,7-dioxo-2,3,4,5,6,7-hexahydro-1H-pyrrolo[3,4-b]pyridin-1-yl)-N-(5′-fluoro-[2,3′-bipyridin]-5-yl)acetamide] | < 100
2 | C[C@@H](C(=O)Nc1ccc(-c2cccnc2)cn1)N1CCCC2=C1C(=O)N(C)C2=O (single isomer, unassigned) [Compound 92] | < 100
3 | CN1C(=O)C2=C(C1=O)N(CC(=O)Nc1cnc(-c3cncc(F)c3)cn1)CCC2 [Compound 141, N-(5-(5-fluoropyridin-3-yl)pyrazin-2-yl)-2-(6-methyl-5,7-dioxo-2,3,4,5,6,7-hexahydro-1H-pyrrolo[3,4-b]pyridin-1-yl)acetamide] | < 100
4 | Cc1nc(-c2cccnc2)ccc1NC(=O)CN1CCCC2=C1C(=O)N(C1CC1)C2=O [Compound 123, 2-(6-cyclopropyl-5,7-dioxo-2,3,4,5,6,7-hexahydro-1H-pyrrolo[3,4-b]pyridin-1-yl)-N-(6-methyl-2,3′-bipyridin-5-yl)acetamide] | > 10000
5 | CC(C(=O)Nc1ccc(-c2cccnc2)nn1)N1CCCC2=C1C(=O)N(C)C2=O (stereo not drawn) [Compound 60, 2-(6-methyl-5,7-dioxo-2,3,4,5,6,7-hexahydro-1H-pyrrolo[3,4-b]pyridin-1-yl)-N-(6-(pyridin-3-yl)pyridazin-3-yl)propanamide] | < 100
6 | CN1C(=O)C2=C(C1=O)N(CC(=O)Nc1ccc(-c3ccccc3)cc1F)CCC2 [Compound 83, N-(3-fluorobiphenyl-4-yl)-2-(6-methyl-5,7-dioxo-2,3,4,5,6,7-hexahydro-1H-pyrrolo[3,4-b]pyridin-1-yl)acetamide] | < 100
7 | CN1C(=O)C2=C(C1=O)N(CC(=O)Nc1ccc(-c3ccc(F)cc3)nn1)CCC2 [Compound 4, N-(6-(4-fluorophenyl)pyridazin-3-yl)-2-(6-methyl-5,7-dioxo-2,3,4,5,6,7-hexahydro-1H-pyrrolo[3,4-b]pyridin-1-yl)acetamide] | < 100
8 | O=C(CN1CCCC2=C1C(=O)N(C1CC1)C2=O)Nc1ccc(-c2cccc(OC(F)(F)F)c2)nn1 [Compound 56, 2-(6-cyclopropyl-5,7-dioxo-2,3,4,5,6,7-hexahydro-1H-pyrrolo[3,4-b]pyridin-1-yl)-N-(6-(3-(trifluoromethoxy)phenyl)pyridazin-3-yl)acetamide] | < 1000
9 | CC(C(=O)Nc1ccc(-c2cncc(F)c2)cn1)N1CCCC2=C1C(=O)N(C)C2=O (stereo not drawn) [Compound 139, N-(5′-fluoro-3,3′-bipyridin-6-yl)-2-(6-methyl-5,7-dioxo-2,3,4,5,6,7-hexahydro-1H-pyrrolo[3,4-b]pyridin-1-yl)propanamide] | < 100
10 | Cc1ccncc1-c1ccc(NC(=O)CN2CCCC3=C2C(=O)N(C2CC2)C3=O)nc1 [Compound 111, 2-(6-cyclopropyl-5,7-dioxo-2,3,4,5,6,7-hexahydro-1H-pyrrolo[3,4-b]pyridin-1-yl)-N-(4′-methyl-[3,3′-bipyridin]-6-yl)acetamide] | < 1000
11 | O=C(CN1CCCC2=C1C(=O)N(C1CC1)C2=O)Nc1ccc(-c2cncc(C(F)(F)F)c2)nn1 [Compound 54, 2-(6-cyclopropyl-5,7-dioxo-2,3,4,5,6,7-hexahydro-1H-pyrrolo[3,4-b]pyridin-1-yl)-N-(6-(5-(trifluoromethyl)pyridin-3-yl)pyridazin-3-yl)acetamide] | < 100
12 | Cc1cc(NC(=O)CN2CCCC3=C2C(=O)N(C2CC2)C3=O)cnc1-c1cccnc1 [Compound 133, 2-(6-cyclopropyl-5,7-dioxo-2,3,4,5,6,7-hexahydro-1H-pyrrolo[3,4-b]pyridin-1-yl)-N-(3-methyl-2,3′-bipyridin-5-yl)acetamide] | < 1000
13 | CC(C(=O)Nc1cnc(-c2ccccc2)cn1)N1CCCC2=C1C(=O)N(C)C2=O (stereo not drawn) [Compound 19, 2-(6-methyl-5,7-dioxo-2,3,4,5,6,7-hexahydro-1H-pyrrolo[3,4-b]pyridin-1-yl)-N-(5-phenylpyrazin-2-yl)propanamide] | < 100
14 | CN1C(=O)C2=C(C1=O)N(CC(=O)Nc1ccc(-c3ccccc3)nn1)CCC2 [Compound 3, 2-(6-methyl-5,7-dioxo-2,3,4,5,6,7-hexahydro-1H-pyrrolo[3,4-b]pyridin-1-yl)-N-(6-phenylpyridazin-3-yl)acetamide] | < 100
15 | O=C(CN1CCCC2=C1C(=O)N(C1CC1)C2=O)Nc1ccc(-c2ccc(C(F)(F)F)cc2)nn1 [Compound 51, 2-(6-cyclopropyl-5,7-dioxo-2,3,4,5,6,7-hexahydro-1H-pyrrolo[3,4-b]pyridin-1-yl)-N-(6-(4-(trifluoromethyl)phenyl)pyridazin-3-yl)acetamide] | < 1000
16 | CN1C(=O)C2=C(C1=O)N(CC(=O)Nc1cnc(-c3cccnc3)cn1)CCC2 [Compound 21, 2-(6-methyl-5,7-dioxo-2,3,4,5,6,7-hexahydro-1H-pyrrolo[3,4-b]pyridin-1-yl)-N-(5-(pyridin-3-yl)pyrazin-2-yl)acetamide] | < 100
17 | CC(C(=O)Nc1ccc(-c2ccccc2)nn1)N1CCCC2=C1C(=O)N(C)C2=O (stereo not drawn) [Compound 13, 2-(6-methyl-5,7-dioxo-2,3,4,5,6,7-hexahydro-1H-pyrrolo[3,4-b]pyridin-1-yl)-N-(6-phenylpyridazin-3-yl)propanamide] | < 100
18 | CN1C(=O)C2=C(C1=O)N(CC(=O)Nc1ccc(-c3cccc(F)c3)nn1)CCC2 [Compound 42, N-(6-(3-fluorophenyl)pyridazin-3-yl)-2-(6-methyl-5,7-dioxo-2,3,4,5,6,7-hexahydro-1H-pyrrolo[3,4-b]pyridin-1-yl)acetamide] | < 100
19 | CC(C(=O)Nc1ccc(-c2cccnc2)cn1)N1CCCC2=C1C(=O)N(C)C2=O (stereo not drawn) [Compound 11, N-([3,3′-bipyridin]-6-yl)-2-(6-methyl-5,7-dioxo-2,3,4,5,6,7-hexahydro-1H-pyrrolo[3,4-b]pyridin-1-yl)propanamide] | < 100
20 | CN1C(=O)C2=C(C1=O)N(CC(=O)Nc1cc(F)c(-c3cccnc3)cn1)CCC2 [Compound 155, N-(4-fluoro-3,3′-bipyridin-6-yl)-2-(6-methyl-5,7-dioxo-2,3,4,5,6,7-hexahydro-1H-pyrrolo[3,4-b]pyridin-1-yl)acetamide] | < 100
21 | CN1C(=O)C2=C(C1=O)N(CC(=O)Nc1cnc(-c3ccccc3)cn1)CCC2 [Compound 12, 2-(6-methyl-5,7-dioxo-2,3,4,5,6,7-hexahydro-1H-pyrrolo[3,4-b]pyridin-1-yl)-N-(5-phenylpyrazin-2-yl)acetamide] | < 100
22 | O=C(CN1CCCC2=C1C(=O)N(C1CC1)C2=O)Nc1ccc(-c2cccnc2)nc1 [Compound 59, N-(2,3′-bipyridin-5-yl)-2-(6-cyclopropyl-5,7-dioxo-2,3,4,5,6,7-hexahydro-1H-pyrrolo[3,4-b]pyridin-1-yl)acetamide] | < 100
23 | Cc1ccc(-c2ccc(NC(=O)CN3CCCC4=C3C(=O)N(C3CC3)C4=O)nc2)nc1 [Compound 146, 2-(6-cyclopropyl-5,7-dioxo-2,3,4,5,6,7-hexahydro-1H-pyrrolo[3,4-b]pyridin-1-yl)-N-(5-methyl-2,3′-bipyridin-6′-yl)acetamide] | < 1000
24 | CN1C(=O)C2=C(C1=O)N(CC(=O)Nc1ccc(-c3cncc(C(F)(F)F)c3)nn1)CCC2 [Compound 48, 2-(6-methyl-5,7-dioxo-2,3,4,5,6,7-hexahydro-1H-pyrrolo[3,4-b]pyridin-1-yl)-N-(6-(5-(trifluoromethyl)pyridin-3-yl)pyridazin-3-yl)acetamide] | < 100
